Converted amounts (≈) assume the structure as drawn. Read-outs that look alike come from different tables or passages of the source. Where only a bound is given, the exact number is not on record here.

For orientation: MIC means the lowest concentration found to suppress growth. A word on the IC50: it is the concentration that inhibits the measured activity by half.

Test [1] has as its system Staphylococcus aureus (ATCC 6538p). In words: Antibacterial assay, S. aureus. Conditions: ATCC6538P, read-out: MIC, A: Staphylococcus aureus. Format: cell-based. The method, then: (§1) The cytotoxicity assays were performed in accordance with the literature protocols. The Na^+/K^+-ATPase, isocitrate lyase, and sortase A inhibition assays were performed according to previously described methods. The antimicrobial assays were performed according to the method described previously.

Test [2] concerns Bacillus subtilis (ATCC 6633). In words: Antibacterial assay, B. subtilis. The test is classed as cell-based. The method, then: as §1
The test system of test [3] is Micrococcus luteus (IFO 12708). Nature of the test: Antibacterial assay, M. luteus. The test is classed as cell-based. The protocol: as §1
For test [4], the system named is Salmonella typhimurium (ATCC 14028). Nature of the test: Antibacterial assay, S. typhimurium. Format: cell-based. The note with it: Salmonella enterica, read-out: MIC, D: Salmonella typhimurium. The protocol:
as §1

Test [5] relates to Proteus vulgaris (ATCC 3851). Nature of the test: Antibacterial assay, P. vulgaris. Format: cell-based. The protocol:
as §1

For test [6], the system named is Escherichia coli (ATCC 35270). In words: Antibacterial assay, E. coli. Format: cell-based. The protocol:
as §1

For the next test, the system named is K562 leukemia cell-line. In words: Cytotoxicity, K562 leukemia cell-line. The test is classed as cell-based. Conditions: Homo sapiens. The method, then:
as §1

The subject of test [7] is A549 lung cancer cell-line. In words: Cytotoxicity, A549 lung cancer cell-line. Conditions: Homo sapiens. The test is classed as cell-based. The method, then:
as §1

For test [8], the system named is MRC5 human lung fibroblast cell-line. In words: Cytotoxicity, MRC5 normal cell-line. Format: cell-based. The protocol:
as §1

The target in a further test is Na^+/K^+-ATPase. Nature of the test: Na+/K+-ATPase inhibition assay. The test is classed as biochemical. Conditions: enzyme inhibition. The method, then:
as §1

Another test addresses sortase A (Staphylococcus aureus, UniProt Q2FV99). In words: Sortase A inhibition assay. The test is classed as biochemical. The protocol:
as §1

The mark [9] stands for this setting: ATCC6633, Gram(+), ATCC 6633, read-out: MIC, B: Bacillus subtilis.
Setting [10] is: IFO12708, Gram(+), IFO 12708, read-out: MIC, C: Micrococcus luteus.
Setting [11] is: ATCC3851, Gram(−), ATCC 3851, read-out: MIC, E: Proteus vulgaris.
Where [12] appears, read: ATCC35270, Gram(−), ATCC 35270, read-out: MIC, F: Escherichia coli.
Setting [13] is: K562 leukemia cell-line cytotoxicity, read-out: IC50, K562.
Setting [14] is: A549 lung cancer cell-line cytotoxicity, read-out: IC50, A549.
Where [15] appears, read: MRC5 human lung fibroblast (normal) cell-line cytotoxicity, read-out: IC50, MRC5.

sortase A, sequence (Q2FV99 whole entry): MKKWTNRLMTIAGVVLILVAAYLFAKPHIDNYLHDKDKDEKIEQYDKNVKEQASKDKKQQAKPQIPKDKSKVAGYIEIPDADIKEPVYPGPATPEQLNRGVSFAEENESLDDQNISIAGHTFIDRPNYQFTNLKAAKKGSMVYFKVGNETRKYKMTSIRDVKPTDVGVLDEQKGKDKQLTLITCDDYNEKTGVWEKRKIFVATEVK

As for `CC1(C)S[C@@H]2[C@H](NC(=O)[C@H](N)c3ccccc3)C(=O)N2[C@H]1C(=O)O` [Ampicillin, reference compound], the MIC in [1] (Gram(+), ATCC 6538p) came to 0.4 µg/mL (≈ 1.14 µM); in test [2] (setting [9]), 0.4 µg/mL (≈ 1.14 µM); in test [3] (setting [10]), 0.4 µg/mL (≈ 1.14 µM); in [4] (Gram(−), ATCC 14028) it was 0.4 µg/mL (≈ 1.14 µM); in [5] (setting [11]) it was 0.8 µg/mL (≈ 2.29 µM); in test [6] (setting [12]), 6.3 µg/mL (≈ 18 µM).

As for `CN[C@@H](Cc1cc(I)c(OC)c(I)c1)C(=O)NCCc1ccccc1` [Compound 1, apliamide A], the IC50 in the test on K562 leukemia cell-line (setting [13]) is 14.3 µM; in [7] (setting [14]), greater than 100 µM; in [8] (setting [15]), 59.2 µM; at Na^+/K^+-ATPase, 163 µM; against sortase A, greater than 300 µM. The MIC in test [1] (Gram(+), ATCC 6538p) is greater than 100 µg/mL; in test [2] (setting [9]), greater than 100 µg/mL; in [3] (setting [10]), greater than 100 µg/mL; in test [4] (Gram(−), ATCC 14028) it was greater than 100 µg/mL; in test [5] (setting [11]) it was greater than 100 µg/mL; in test [6] (setting [12]), greater than 100 µg/mL.

With `COc1c(I)cc(C[C@@H](C(=O)NCCc2ccccc2)N(C)C)cc1I` [Compound 2, apliamide B], the IC50 in the test with K562 leukemia cell-line (setting [13]) was 21.1 µM; in test [7] (setting [14]), 10.8 µM; in [8] (setting [15]), 73.7 µM; against Na^+/K^+-ATPase, greater than 200 µM; at sortase A, greater than 300 µM. The MIC in test [1] (Gram(+), ATCC 6538p) was greater than 100 µg/mL; in test [2] (setting [9]), greater than 100 µg/mL; in [3] (setting [10]) it was greater than 100 µg/mL; in [4] (Gram(−), ATCC 14028), greater than 100 µg/mL; in [5] (setting [11]) it was greater than 100 µg/mL; in test [6] (setting [12]), greater than 100 µg/mL.

`COc1ccc(CCNC(=O)[C@H](Cc2cc(I)c(OC)c(I)c2)N(C)C)cc1I` [Compound 3, apliamide C]: the IC50 in the test on K562 leukemia cell-line (setting [13]) is 10.4 µM; in test [7] (setting [14]), 13.4 µM; in test [8] (setting [15]), greater than 100 µM; at Na^+/K^+-ATPase, greater than 200 µM; on sortase A it was greater than 300 µM. The minimal inhibitory concentration (MIC) in test [1] (Gram(+), ATCC 6538p) is greater than 100 µg/mL; in test [2] (setting [9]) it was greater than 100 µg/mL; in test [3] (setting [10]), greater than 100 µg/mL; in test [4] (Gram(−), ATCC 14028), greater than 100 µg/mL; in test [5] (setting [11]), greater than 100 µg/mL; in test [6] (setting [12]) it was greater than 100 µg/mL.

Consider `COc1c(I)cc(/C=C/C(=O)NCCc2ccccc2)cc1I` [Compound 4, apliamide D], for which the IC50 with K562 leukemia cell-line (setting [13]) was 18.2 µM; in [7] (setting [14]), greater than 100 µM; in test [8] (setting [15]), greater than 100 µM; against Na^+/K^+-ATPase, 3.2 µM; at sortase A, greater than 300 µM. Also, the MIC is greater than 100 µg/mL in test [1] (Gram(+), ATCC 6538p); greater than 100 µg/mL in test [2] (setting [9]); greater than 100 µg/mL in [3] (setting [10]); greater than 100 µg/mL in [4] (Gram(−), ATCC 14028); greater than 100 µg/mL in test [5] (setting [11]); greater than 100 µg/mL in test [6] (setting [12]).

Turning to `CN(C)[C@@H](Cc1c[nH]c2cc(Br)ccc12)C(=O)NCCc1ccccc1` [Compound 5, apliamide E], the IC50 in the test with K562 leukemia cell-line (setting [13]) is 7.8 µM; in test [7] (setting [14]) it was 22.8 µM; in test [8] (setting [15]) it was 37 µM; at Na^+/K^+-ATPase it was greater than 200 µM; against sortase A, greater than 300 µM. Besides, the MIC in test [1] (Gram(+), ATCC 6538p) was greater than 100 µg/mL; in [2] (setting [9]), greater than 100 µg/mL; in test [3] (setting [10]), greater than 100 µg/mL; in test [4] (Gram(−), ATCC 14028) it was greater than 100 µg/mL; in test [5] (setting [11]), greater than 100 µg/mL; in test [6] (setting [12]) it was greater than 100 µg/mL.

With `COc1c(I)cc(CCN(C)C)cc1I` [Compound 6, apliamine A], the IC50 in the test on K562 leukemia cell-line (K562, read-out: IC50, K562) is 19.7 µM; in [7] (A549, read-out: IC50, A549), 8.3 µM; in test [8] (Homo sapiens, MRC5, read-out: IC50, MRC5), greater than 100 µM; at Na^+/K^+-ATPase, 189 µM; at sortase A, greater than 300 µM. Further, the MIC is greater than 100 µg/mL in test [1]; greater than 100 µg/mL in test [2] (ATCC6633, read-out: MIC, B: Bacillus subtilis); greater than 100 µg/mL in test [3] (IFO12708, read-out: MIC, C: Micrococcus luteus); greater than 100 µg/mL in test [4]; greater than 100 µg/mL in [5] (ATCC3851, read-out: MIC, E: Proteus vulgaris); greater than 100 µg/mL in [6] (ATCC35270, read-out: MIC, F: Escherichia coli).

With `COc1cccc2c1C(=O)c1c(O)c3c(c(O)c1C2=O)C[C@@](O)(C(=O)CO)C[C@@H]3O[C@H]1C[C@H](N)[C@H](O)[C@H](C)O1` [Doxorubicin, reference compound], the IC50 in the test with K562 leukemia cell-line (setting [13]) amounted to 1.2 µM; in [7] (setting [14]), 1.4 µM; in [8] (setting [15]), 9.8 µM.

For `O=C(O)c1cc[c]([Hg][OH])cc1` [pHMB, para-Hydroxymercuribenzoic acid, reference compound], on sortase A (sortase A inhibition, read-out: IC50, Srt A), the IC50 was 109 µM.

(Values after article PMC4483659, “Amino Acid-Derived Metabolites from the Ascidian Aplidium sp” (Marine Drugs, 2015).)
